The source of these data is patent US9012489B2, “Phenyl-3-aza-bicyclo[3.1.0]hex-3-yl-methanones and the use thereof as medicament” (Boehringer Ingelheim International GmbH, priority 2011, dated 2015).

This experiment concerns the target T1, GlyT1 transporter (Homo sapiens, UniProt P48067).
T1 construct: endogenously expressing the GlyT1 transporter; host or cells: SK-N-MC human neuroblastoma cells
T1 sequence (P48067 1-706): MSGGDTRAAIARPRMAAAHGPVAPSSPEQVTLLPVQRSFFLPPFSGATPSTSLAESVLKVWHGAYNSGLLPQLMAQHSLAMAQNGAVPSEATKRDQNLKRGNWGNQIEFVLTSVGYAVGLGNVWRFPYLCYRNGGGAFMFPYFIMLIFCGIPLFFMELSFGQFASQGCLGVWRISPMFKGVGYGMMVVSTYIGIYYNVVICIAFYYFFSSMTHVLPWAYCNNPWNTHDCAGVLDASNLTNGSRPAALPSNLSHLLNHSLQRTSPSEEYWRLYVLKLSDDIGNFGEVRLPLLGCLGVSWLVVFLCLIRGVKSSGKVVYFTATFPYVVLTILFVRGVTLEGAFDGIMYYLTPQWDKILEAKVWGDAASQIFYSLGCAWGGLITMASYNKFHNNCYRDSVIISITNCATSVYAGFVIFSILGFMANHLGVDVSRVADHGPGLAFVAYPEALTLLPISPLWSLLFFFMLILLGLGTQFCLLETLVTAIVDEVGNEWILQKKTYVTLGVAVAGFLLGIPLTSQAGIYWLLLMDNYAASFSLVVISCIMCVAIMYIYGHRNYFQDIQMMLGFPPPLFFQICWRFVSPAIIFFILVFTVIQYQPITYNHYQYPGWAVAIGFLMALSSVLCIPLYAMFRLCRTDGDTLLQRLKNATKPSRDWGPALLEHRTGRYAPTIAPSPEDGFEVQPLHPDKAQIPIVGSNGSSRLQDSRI
Kind of experiment: GlyT1 assay: 3H-glycine uptake into SK-N-MC cells (Cytostar-T format). The following applies: glycine uptake in human SK-N-MC cells endogenously expressing GlyT1; 500 nM glycine, 1% DMSO, signal recorded over 60 min. It is filed as cell-based. An outline of the steps: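 Endogenous GlyT1 in human SK-N-MC cells, confluent after 16-18 h, in HBSS with 5 mM alanine. Compounds preincubated about 5-10 min, then 500 nM glycine (half ³H) added, 1% DMSO. Scintillation-proximity uptake recorded kinetically over 60 min; IC50 from linear-range slopes over 8 concentrations, nonspecific uptake defined with 10 μM RG-1678.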
As a reminder, the IC50 is the concentration that inhibits the measured activity by half. Low values mean inhibition by little substance, high ones a need for much substance. As to `COC1(c2nc(C34CC3CN(C(=O)c3cc(S(C)(=O)=O)ccc3O[C@@H](C)C(F)(F)F)C4)no2)CC1` (mixture of isomers) [Example 116, [5-Methanesulfonyl-2-(2,2,2-trifluoro-1-methyl-ethoxy)-phenyl]-{1-[5-(1-methoxy-cyclopropyl)-[1,2,4]oxadiazol-3-yl]-3-aza-bicyclo[3.1.0]hex-3-yl}-methanone], the IC50 was found to be 10 nM. That is a double-digit nanomolar value. The compound `C[C@H](Oc1ccc(S(C)(=O)=O)cc1C(=O)N1CC2CC2(c2csc(C(F)(F)F)n2)C1)C(F)(F)F` (single isomer, unassigned) [Example 27, [5-Methanesulfonyl-2-(2,2,2-trifluoro-1-methyl-ethoxy)-phenyl]-[1-(2-trifluoromethyl-thiazol-4-yl)-3-aza-bicyclo[3.1.0]hex-3-yl]-methanone] displayed an IC50 of 5 nM.

Take `C[C@@H](Oc1ccc(S(C)(=O)=O)cc1C(=O)N1CC2CC2(c2nccc(C3CC3)n2)C1)C(F)(F)F` (mixture of isomers) [Example 79, [1-(4-Cyclopropyl-pyrimidin-2-yl)-3-aza-bicyclo[3.1.0]hex-3-yl]-[5-methanesulfonyl-2-(2,2,2-trifluoro-1-methyl-ethoxy)-phenyl]-methanone]: the IC50 amounted to 6 nM. As for `C[C@H](Oc1ccc(S(C)(=O)=O)cc1C(=O)N1CC2CC2(c2cccc(C(F)(F)F)n2)C1)C(F)(F)F` (single isomer, unassigned) [Example 55, [5-Methanesulfonyl-2-(2,2,2-trifluoro-1-methyl-ethoxy)-phenyl]-[1-(6-trifluoromethyl-pyridin-2-yl)-3-aza-bicyclo[3.1.0]hex-3-yl]-methanone], the IC50 amounted to 22 nM. The compound `CCS(=O)(=O)c1ccc(O[C@@H](C)C(F)(F)F)c(C(=O)N2CC3CC3(c3nccc(C(F)(F)F)n3)C2)c1` (single isomer, unassigned) [Example 74, [5-Ethanesulfonyl-2-(2,2,2-trifluoro-1-methyl-ethoxy)-phenyl]-[1-(4-trifluoromethyl-pyrimidin-2-yl)-3-aza-bicyclo[3.1.0]hex-3-yl]-methanone] registered an IC50 of 4 nM.
